Assays:
right lateral PFC = conditions: patients with MDD, after ketamine treatment; cited from earlier work
5-HT2A receptor [1] = conditions: cited from earlier work
[2] = in vivo; cited from earlier work
5-HT2A receptor [3] = conditions: pre-treatment; cited from earlier work
serotonin receptor = conditions: pre-treatment, dose blocking about 30% of 5-HT2A receptors; cited from earlier work
[4] = test system: dendritic spines in cells of the frontal cortex; conditions: cited from earlier work
[5] = test system: PFC mTORC1-related signaling pathways; assay: PFC mTORC1-related signaling and neurotrophic factor genes after acute administration; format: in vivo
Excerpt: As a result, glutamate release is increased which enhances AMPA mediated currents, BDNF release, and mTORC1 activation. Increased synaptogenesis has been associated with enhanced mTORC1 signaling in the PFC.

5-HT2A receptor [6] = conditions: read-out: 5-HT2A receptor antagonism Ki; cited from earlier work
[7] = test system: NMDA/AMPA receptors and downstream BDNF and mTOR signaling; conditions: compared with ketamine; cited from earlier work
[8] = test system: glutamatergic NMDA NR2B (GluN2B) receptors; conditions: mesolimbic; cited from earlier work
NMDA and AMPA receptor = conditions: rat mPFC slices; cited from earlier work
[9] = test system: patients with acute exacerbated schizophrenia; assay: Clinical studies in patients with acute exacerbated schizophrenia, emotional experience symptoms; format: in vivo, human; conditions: 60 mg P.O. once daily, up to 28 days, two clinical studies, vs placebo
Excerpt: Social avoidance can be a critical and debilitating symptom in patients suffering from anxiety disorders, especially social anxiety disorder, as well as in patients suffering from traumatic anxiety disorders. Social avoidance is often one of the key determinants of whether a person with a severe anxiety disorder is capable of maintaining familial relationships or employment relationships. […] Negative symptoms of schizophrenia can be divided into two categories: emotional experience (e.g., emotional withdrawal, passive social withdrawal, active social avoidance) and emotional expression (e.g., blunted effect, poor rapport, lack of spontaneity, and motor retardation). […] These are the symptoms that are most highly correlated with interpersonal functioning.

D2 receptor = conditions: presynaptic D2 receptor partial agonism and postsynaptic D2 receptor antagonism; cited from earlier work
[10] = test system: medial prefrontal cortex neurons; conditions: mouse, in vivo; cited from earlier work

CNC1(c2ccccc2Cl)CCCCC1=O (centres unmarked) [ketamine]
functional connectivity in the right lateral PFC (right lateral PFC): improved functional connectivity in the right lateral PFC

CN(C)CCc1c[nH]c2cccc(O)c12 [Psilocin]
5-HT2A receptor functional activity (5-HT2A receptor [1]): strong agonist of the 5-HT2A receptor | side effects [2]: can cause nausea and panic attacks

O=C(c1ccc(F)cc1)C1CCN(CCn2c(=O)[nH]c3ccccc3c2=O)CC1 [ketanserin]
5-HT2A receptors blocked (5-HT2A receptor [3]): about 30% | psilocybin-induced head twitch response (serotonin receptor): sufficient to block the psilocybin-induced head twitch response | effect on psilocybin-induced growth of dendritic spines ([4]; pre-treatment with 5-HT2A receptor antagonist): did not eliminate the psilocybin-induced growth of dendritic spines

CN1CCN2c3c(cccc31)[C@@H]1CN(CCCC(=O)c3ccc(F)cc3)CC[C@@H]12 [Lumateperone, 4-((6bR,10aS)-3-methyl-2,3,6b,9,10,10a-hexahydro-1H-pyrido[3′,4′: 4,5]pyrrolo[1,2,3-de]quinoxalin-8 (7H)-yl)-1-(4-fluorophenyl)-1-butanone]
PFC mTORC1-related signaling and neurotrophic factor genes [5]: stimulates PFC mTORC1-related signaling pathways, as well as some important genes coding for neurotrophic factors, such as BDNF and VEGF | 5-HT2A receptor functional activity (5-HT2A receptor [1]): strong antagonist of the 5-HT2A receptor | serotonin receptor agonist activity (5-HT2A receptor [1]): does not have serotonin receptor agonist activity | Ki (5-HT2A receptor [6]): 0.5 nM | activity on NMDA/AMPA receptors and downstream BDNF and mTOR signaling [7]: very similar activity on NMDA/AMPA receptors and downstream BDNF and mTOR signaling as ketamine | phosphorylation of NMDA NR2B (GluN2B) receptors [8]: stimulates phosphorylation of glutamatergic NMDA NR2B (GluN2B) receptors in a mesolimbic specific manner | glutamatergic neurotransmission, NMDA and AMPA receptor conductance (NMDA and AMPA receptor): enhance glutamatergic neurotransmission by effects on both NMDA and AMPA receptor conductance | symptoms of emotional experience [9]: significant and unexpected improvement in symptoms of emotional experience compared to placebo | Ki (D2 receptor): 32 nM

CN(C)CCc1c[nH]c2cccc(OP(=O)(O)O)c12 [psilocybin]
persistence of changes in dendritic spine density ([4]; following the single dose): at least a month | dendritic spine formation/elimination rate ([4]; male and female mice): increased formation rate, rather than reduced elimination rate | dendritic spine density and spine head width ([4]; single dose, within one day): measurable increase in dendritic spine density, as well as increased spine head width, within one day | 5-HT2A receptor functional activity (5-HT2A receptor [1]): strong agonist of the 5-HT2A receptor | excitatory neurotransmission in medial prefrontal cortex (mEPSCs) [10]: increased excitatory neurotransmission in the medial prefrontal cortex

— patent publication US20260345598A1 (INTRA-CELLULAR THERAPIES, INC., priority 2023, published 2026)
